# Laboratory results from patent US6620839B2, “1,3-disubstituted and 1,3,3-trisubstituted pyrrolidines as histamine-3 receptor ligands and their therapeutic applications” (Abbott Laboratories, priority 2000, dated 2003).
# Molecular target: T1, histamine-3 receptor (Rattus norvegicus, UniProt Q9QYN8)
# T1 construct: from tissue; host or cells: male Sprague-Dawley rat brain cortex membranes
# Test: Histamine-3 receptor binding, (3H)-N-α-methylhistamine displacement in rat cortical membranes
# Conditions: male Sprague-Dawley rat brain cortical membranes; (3H)-N-α-methylhistamine ~0.6 nM; 30 minutes at 25° C.; Cheng-Prusoff
# How it was run: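 Male Sprague-Dawley rat cortical membranes incubated 30 min at 25 °C with compound dilutions and [3H]-N-α-methylhistamine. Nonspecific binding defined with 3 μM thioperamide. Filtration and scintillation counting used; Ki from Hill transformation and Cheng-Prusoff equation.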
# T1 sequence (Q9QYN8 whole entry): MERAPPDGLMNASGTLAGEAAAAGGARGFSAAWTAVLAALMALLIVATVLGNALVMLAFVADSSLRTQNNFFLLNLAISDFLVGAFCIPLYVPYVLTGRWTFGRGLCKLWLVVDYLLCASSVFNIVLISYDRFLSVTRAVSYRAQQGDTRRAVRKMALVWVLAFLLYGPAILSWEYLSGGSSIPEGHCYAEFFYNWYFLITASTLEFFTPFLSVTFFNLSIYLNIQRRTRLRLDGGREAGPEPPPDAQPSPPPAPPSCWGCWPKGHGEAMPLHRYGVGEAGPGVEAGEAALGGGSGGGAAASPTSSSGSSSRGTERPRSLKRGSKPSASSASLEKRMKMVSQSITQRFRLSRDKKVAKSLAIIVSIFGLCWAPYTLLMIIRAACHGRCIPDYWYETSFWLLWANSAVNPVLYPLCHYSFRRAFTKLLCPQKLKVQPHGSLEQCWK
row,Compound,Ki [nM]
1,CN(C(=O)N1CCOCC1)[C@@H]1CCN(CCCOc2ccc(-c3ccc(C#N)cc3)cc2)C1 [Example 118],5.7
2,"CN(C(=O)c1ccc(C#N)cc1)[C@@H]1CCN(CCCOc2ccc(-c3ccc(C#N)cc3)cc2)C1 [Example 120, 4-cyano-N-((3R)-1-{3-[(4′-cyano[1,1′-biphenyl]-4-yl)oxy]propyl}pyrrolidinyl)-N-methylbenzamide]",10
3,CN(C(=O)c1cccnc1)[C@@H]1CCN(CCCOc2ccc(-c3ccc(C#N)cc3)cc2)C1 [Example 121],16
4,CN(C(=O)c1ccco1)[C@@H]1CCN(CCCOc2ccc(-c3ccc(C#N)cc3)cc2)C1 [Example 122],20
5,"CC(C)c1ccc(S(=O)(=O)N(C)[C@@H]2CCN(CCCOc3ccc(-c4ccc(C#N)cc4)cc3)C2)cc1 [Example 127, N-((3R)-1-{3-[(4′-cyano[1,1′-biphenyl]-4-yl)oxy]propyl}pyrrolidinyl)-4-isoproply-N-methylbenzensulfonamide]",16
6,CN([C@@H]1CCN(CCCOc2ccc(-c3ccc(C#N)cc3)cc2)C1)S(=O)(=O)c1ccc(S(C)(=O)=O)cc1 [Example 128],2.3
7,"C=CCOC(=O)N[C@@H]1CCN(CCCOc2ccc(-c3ccc(C#N)cc3)cc2)C1 [Example 132, allyl (3R)-1-{3-[(4′-cyano[1,1′-biphenyl]-4-yl)oxy]propyl}pyrrolidinylcarbamate]",74
8,N#Cc1ccc(-c2ccc(OCCCN3CC[C@@H](NC(=O)N4CCCC4)C3)cc2)cc1 [Example 136],215
9,N#Cc1ccc(-c2ccc(OCCCN3CC[C@@H](NC(=O)N4CCOCC4)C3)cc2)cc1 [Example 138],118
10,N#Cc1ccc(-c2ccc(OCCCN3CC[C@@H](NC(=O)c4ccco4)C3)cc2)cc1 [Example 142],321
11,N#Cc1ccc(-c2ccc(OCCCN3CC[C@@H](NC(=O)c4csc(-c5cccnc5)n4)C3)cc2)cc1 [Example 143],85
12,CN(C)C(=O)N(C(=O)N(C)C)[C@@H]1CCN(CCCOc2ccc(-c3ccc(C#N)cc3)cc2)C1 [Example 148],291
13,N#Cc1ccc(-c2ccc(OCCCN3CC[C@@H](N(C(=O)N4CCOCC4)C(=O)N4CCOCC4)C3)cc2)cc1 [Example 150],267
14,"Cc1cc(-c2ccc(OCCCN3CC[C@@H](N(C)C)C3)cc2)ccc1C#N [Example 164, 4′-{3-[(3R)-3-(dimethylamino)-1-pyrrolidinyl]propoxy}-3-methyl-1,1′-biphenyl-4-carbonitrile]",48
15,"CN(C)[C@@H]1CCN(CCCOc2ccc(-c3ccc(C#N)c(F)c3)cc2)C1 [Example 166, 4′-{3-[(3R)-3-(dimethylamino)-1-pyrrolidinyl}propoxy]-3-fluoro-1,1′-biphenyl-4-carbonitrile]",73
16,"CN(C)[C@@H]1CCN(CCCOc2ccc(-c3ccc(C#N)cc3)cc2F)C1 [Example 167, 4′-{3-[(3R)-3-(dimethylamino)-1-pyrrolidinyl]propoxy}-3′-fluoro-1,1′-biphenyl-4-carbonitrile]",9
17,"Cc1cc(OCCCN2CC[C@@H](N(C)C)C2)ccc1-c1ccc(C#N)cc1 [Example 170, 4′-{3-[(3R)-3-(dimethylamino)-1-pyrrolidinyl]propoxy}-2′-methyl-1,1′-biphenyl-4-carbonitrile]",51
18,"CN(C)[C@@H]1CCN(CCCOc2ccc(-c3ccc(C#N)cc3)cc2Cl)C1 [Example 171, 3′-chloro-4′-{3-[(3R)-3-(dimethylamino)-1-pyrrolidinyl]propoxy}-1,1′-biphenyl-4-carbonitrile]",41
19,N-((3R)-1-{3-[4-(cyclopropylcarbonyl)phenoxy]propyl}pyrrolidinyl)-4-isopropylbenzenesulfonamide [Example 67],2.9
20,N-{(3R)-1-[3-(4-acetylphenoxy)propyl]pyrrolidinyl}-4-(trifluoromethoxy)benzenesulfonamide [Example 73],6.4

# More lines, in order of falling Ki, values ahead:
row,Ki [nM],Compound
1,342,N#Cc1ccc(-c2ccc(OCCCN3CC[C@@H](NC(=O)c4cccnc4)C3)cc2)cc1 [Example 141]
2,329,N#Cc1ccc(-c2ccc(OCCCN3CC[C@@H](N(C(=O)N4CCCC4)C(=O)N4CCCC4)C3)cc2)cc1 [Example 149]
3,288,N#Cc1ccc(-c2ccc(OCCCN3CC[C@@H](NC(=O)c4ccc(F)cc4)C3)cc2)cc1 [Example 139]
4,220,"N#Cc1ccc(C(=O)N[C@@H]2CCN(CCCOc3ccc(-c4ccc(C#N)cc4)cc3)C2)cc1 [Example 140, 4-cyano-N-((3R)-1-{3-[(4′-cyano[1,1′-biphenyl]-4-yl)oxy]propyl}pyrrolidinyl)benzamide]"
5,209,CC(C)(C)CC(=O)N(C(=O)CC(C)(C)C)[C@@H]1CCN(CCCOc2ccc(-c3ccc(C#N)cc3)cc2)C1 [Example 147]
6,206,"CN(C)[C@@H]1CCN(CCCOc2ccc(-c3ccc(C#N)cc3)cc2I)C1 [Example 169, 4′-{3-[(3R)-3-(dimethylamino)-1-pyrrolidinyl]propoxy}-3 ′-iodo-1,1′-biphenyl-4-carbonitrile]"
7,196,"CC(C)(C)NC(=O)N[C@@H]1CCN(CCCOc2ccc(-c3ccc(C#N)cc3)cc2)C1 [Example 137, N-(tert-butyl)-N′-((3R)-1-{3-[(4′-cyano[1,1′-biphenyl]-4-yl)oxy]propyl}pyrrolidinyl)urea]"
8,168,"CCC(C)(C)OC(=O)N[C@@H]1CCN(CCCOc2ccc(-c3ccc(C#N)cc3)cc2)C1 [Example 134, tert-pentyl (3R)-1-{3-[(4′-cyano[1,1′-biphenyl]-4-yl)oxy]propyl}pyrrolidinylcarbamate]"
9,132,CN(C)C(=O)N[C@@H]1CCN(CCCOc2ccc(-c3ccc(C#N)cc3)cc2)C1 [Example 135]
10,74,"Cc1cc(-c2ccc(C#N)cc2)ccc1OCCCN1CC[C@@H](N(C)C)C1 [Example 168, 4′-{3-[(3R)-3-(dimethylamino)-1-pyrrolidinyl]propoxy}-3′-methyl-1,1′-biphenyl-4-carbonitrile]"
11,57,"COC(=O)N[C@@H]1CCN(CCCOc2ccc(-c3ccc(C#N)cc3)cc2)C1 [Example 133, methyl (3R)-1-{3-[(4′-cyano[1,1′-biphenyl]-4-yl)oxy]propyl}pyrrolidinylcarbamate]"
12,51,CC(C)(C)CC(=O)N[C@@H]1CCN(CCCOc2ccc(-c3ccc(C#N)cc3)cc2)C1 [Example 131]
13,45,"CN(C(=O)NC(C)(C)C)[C@@H]1CCN(CCCOc2ccc(-c3ccc(C#N)cc3)cc2)C1 [Example 117, N′-tert-butyl-N-((3R)-1-{3-[(4′-cyano[1,1′-biphenyl]-4-yl)oxy]propyl}pyrrolidinyl)-N-methylurea]"
14,31,CC(=O)N[C@@H]1CCN(CCCOc2ccc(-c3ccc(C#N)cc3)cc2)C1 [Example 130]
15,27,"COc1cc(-c2ccc(C#N)cc2)ccc1OCCCN1CC[C@@H](N(C)C)C1 [Example 173, 4′-{3-[(3R)-3-(dimethylamino)-1-pyrrolidinyl]propoxy}-3′-methoxy-1,1′-biphenyl-4-carbonitrile]"
16,21,CC(C)S(=O)(=O)N[C@@H]1CCN(CCCOc2ccc(-c3ccc(C#N)cc3)cc2)C1 [Example 144]
17,17,"Cc1cc(C#N)ccc1-c1ccc(OCCCN2CC[C@@H](N(C)C)C2)cc1 [Example 165, 4′-{3-[(3R)-3-(dimethylamino)-1-pyrrolidinyl]propoxy}-2-methyl-1,1′-biphenyl-4-carbonitrile]"
18,14,"CN(C)[C@@H]1CCN(CCCOc2c(F)cc(-c3ccc(C#N)cc3)cc2Cl)C1 [Example 174, 3′-chloro-4′-{3-[(3R)-3-(dimethylamino)-1-pyrrolidinyl]propoxy}-5′-fluoro-1,1′-biphenyl-4-carbonitrile]"
19,13,"CN(C)[C@@H]1CCN(CCCOc2c(F)cc(-c3ccc(C#N)cc3)cc2F)C1 [Example 172, 4′-{3-[(3R)-3-(dimethylamino)-1-pyrrolidinyl]propoxy}-3′,5′-difluoro-1,1′-biphenyl-4-carbonitrile]"
20,9.6,CN(C)S(=O)(=O)N[C@@H]1CCN(CCCOc2ccc(-c3ccc(C#N)cc3)cc2)C1 [Example 145]
21,7.7,CN(C(=O)c1ccc(F)cc1)[C@@H]1CCN(CCCOc2ccc(-c3ccc(C#N)cc3)cc2)C1 [Example 119]
22,7.4,CN([C@@H]1CCN(CCCOc2ccc(-c3ccc(C#N)cc3)cc2)C1)S(=O)(=O)c1cccc(F)c1 [Example 125]
23,5.6,CN(C(=O)c1csc(-c2cccnc2)n1)[C@@H]1CCN(CCCOc2ccc(-c3ccc(C#N)cc3)cc2)C1 [Example 123]
24,4.6,"CN([C@@H]1CCN(CCCOc2ccc(-c3ccc(C#N)cc3)cc2)C1)S(=O)(=O)c1ccc(C#N)cc1 [Example 126, 4-cyano-N-((3R)-1-{3-[(4′-cyano[1,1′-biphenyl]-4-yl)oxy]propyl}pyrrolidinyl)-N-methylbenzenesulfonamide]"
25,3,CS(=O)(=O)c1ccc(S(=O)(=O)N[C@@H]2CCN(CCCOc3ccc(-c4ccc(C#N)cc4)cc3)C2)cc1 [Example 146]
26,2.9,CN(C)S(=O)(=O)N(C)[C@@H]1CCN(CCCOc2ccc(-c3ccc(C#N)cc3)cc2)C1 [Example 124]
